Each compound was assayed against T1, Human C5 (Homo sapiens, UniProt P01031) (assay: Red blood cell (RBC) hemolysis assay, luminescent (Example 13, Table 22)). Settings: sheep EA cells, […] C5-depleted human serum, 0.5 nM human C5, 1 hour 37° C., luminescence.
T1 construct: purchased Complement Technology
T1 sequence (P01031 19-1676): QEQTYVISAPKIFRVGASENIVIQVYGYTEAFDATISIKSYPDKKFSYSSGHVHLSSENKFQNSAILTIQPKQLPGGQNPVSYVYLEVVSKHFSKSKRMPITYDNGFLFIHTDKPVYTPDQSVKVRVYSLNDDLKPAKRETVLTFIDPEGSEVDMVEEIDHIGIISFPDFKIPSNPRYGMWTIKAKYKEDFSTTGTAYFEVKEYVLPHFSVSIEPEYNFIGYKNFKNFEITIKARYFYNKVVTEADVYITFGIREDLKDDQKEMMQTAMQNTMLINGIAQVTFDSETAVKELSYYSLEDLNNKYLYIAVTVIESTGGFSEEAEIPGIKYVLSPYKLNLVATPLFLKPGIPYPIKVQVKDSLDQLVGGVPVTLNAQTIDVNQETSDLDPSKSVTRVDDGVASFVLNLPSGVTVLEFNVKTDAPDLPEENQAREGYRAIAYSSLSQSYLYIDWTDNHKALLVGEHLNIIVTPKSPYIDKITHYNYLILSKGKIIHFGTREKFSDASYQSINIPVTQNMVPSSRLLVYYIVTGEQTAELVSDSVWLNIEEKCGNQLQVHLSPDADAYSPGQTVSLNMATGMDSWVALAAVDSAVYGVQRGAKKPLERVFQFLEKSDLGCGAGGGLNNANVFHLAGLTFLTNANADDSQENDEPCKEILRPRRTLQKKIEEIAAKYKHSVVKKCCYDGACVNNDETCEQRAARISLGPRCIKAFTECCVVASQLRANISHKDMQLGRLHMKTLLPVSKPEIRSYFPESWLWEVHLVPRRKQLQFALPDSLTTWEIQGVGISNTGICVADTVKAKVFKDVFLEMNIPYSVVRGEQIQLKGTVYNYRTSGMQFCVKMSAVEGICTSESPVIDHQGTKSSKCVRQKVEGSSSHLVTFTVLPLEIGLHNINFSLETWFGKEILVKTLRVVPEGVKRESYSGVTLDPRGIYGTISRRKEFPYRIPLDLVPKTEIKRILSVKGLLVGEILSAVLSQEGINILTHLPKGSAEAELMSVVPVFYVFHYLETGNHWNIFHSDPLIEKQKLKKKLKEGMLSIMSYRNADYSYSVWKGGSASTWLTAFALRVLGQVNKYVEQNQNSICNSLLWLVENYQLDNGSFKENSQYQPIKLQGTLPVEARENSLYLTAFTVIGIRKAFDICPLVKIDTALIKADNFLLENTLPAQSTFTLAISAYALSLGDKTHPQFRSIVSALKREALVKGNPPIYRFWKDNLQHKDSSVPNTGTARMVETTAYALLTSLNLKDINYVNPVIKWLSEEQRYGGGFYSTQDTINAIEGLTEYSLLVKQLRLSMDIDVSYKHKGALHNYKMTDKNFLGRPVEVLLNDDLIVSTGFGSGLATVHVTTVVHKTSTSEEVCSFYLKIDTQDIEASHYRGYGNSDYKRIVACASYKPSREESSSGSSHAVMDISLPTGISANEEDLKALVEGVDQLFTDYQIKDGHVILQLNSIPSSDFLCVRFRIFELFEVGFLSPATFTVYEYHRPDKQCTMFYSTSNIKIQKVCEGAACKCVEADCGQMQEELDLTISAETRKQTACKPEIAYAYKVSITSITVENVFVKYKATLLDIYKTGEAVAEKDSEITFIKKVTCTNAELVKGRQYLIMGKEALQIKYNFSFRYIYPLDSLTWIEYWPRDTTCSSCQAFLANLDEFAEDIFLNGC
Assay type: cell-based
Source text: Compound CU0136 is a racemic mixture of Compound CU0186 and CU0187. Numbers in parenthesis following compound numbers indicate alternate enantiomers (as distinguished by retention time during chromatographical separation).
With `CCCCCOc1cc(N2CCCN(Cc3ccc(CC(=O)N4CCCC4)cc3OC)C2=O)ccc1OC` [CU0006] the IC50 was 19.5 nM.
In the case of `CCCCCOc1cc(N2CCN(Cc3ccccc3Cl)C2=O)ccc1OC` [CU0009], the IC50 is reported as 203 nM.
With `CCCCCOc1cc(N2CCCN(Cc3ccccc3C3CC3)C2=O)ccc1OC` [CU0015] the IC50 was 519 nM.
In the case of `CCCCCOc1cc(N2CCN(C[C@@H](O)c3ccccc3)C2=O)ccc1OC` [CU0016], the IC50 is reported as 2620 nM.
`CCCCCOc1cc(N2CCCN(Cc3cccc4c3ccn4Cc3cccnc3)C2=O)ccc1OC` [CU0023] was tested, and the IC50 was 20.7 nM.
Compound `CCCCCOc1cc(N2CCCN(Cc3cccc4c3ccn4CC(=O)N(C)C)C2=O)ccc1C1CC1` [CU0026] has an IC50 of 62.5 nM.
Compound `CCCCCOc1cc(N2CCN(Cc3ccnc4c3ccn4CC(=O)N(C)C)C2=O)ccc1C1CC1` [CU0034] has an IC50 of 1230 nM.
Compound `COc1ccc(N2CCCCN(Cc3ccnc4c3ccn4CC(=O)N(C)C)C2=O)cc1OCCCC(C)C` [CU0038] has an IC50 of 267 nM.
Compound `CCCCCOc1cc(N2CCCN(C(C)c3ccnc4c3ccn4C3CCN(C)C3=O)C2=O)ccc1OC` (centres unmarked) [CU0040(1)] has an IC50 of 66.5 nM.
Work on `CCCCCOc1cc(N2CCCN(C(C)c3ccnc4c3ccn4C3CCN(C)C3=O)C2=O)ccc1OC` (centres unmarked) [CU0040(2)] yielded an IC50 of 76.3 nM.
`CCCCCOc1cc(N2CCN(Cc3ccnc4c3ccn4CC(=O)N3CCOC(COC)C3)C2=O)ccc1OC` (centres unmarked) [CU0047] gave an IC50 of 3140 nM.
Work on `CCCCCOc1cc(N2CCN(Cc3ccnc4c3ccn4CC(=O)N3CCCOCC3)C2=O)ccc1OC` [CU0052] yielded an IC50 of 61.4 nM.
`CCCCCOc1cc(N2CCCN(Cc3ccnc4c3ccn4CC(=O)N3CCCOCC3)C2=O)ccc1OC` [CU0053] gave an IC50 of 23.3 nM.
Compound `CCCCCOc1cc(N2CCCN(Cc3ccnc4c3ccn4CC(=O)N3CCCOCC3)C2=O)ccc1C1CC1` [CU0054] has an IC50 of 117 nM.
Compound `CCCCCOc1cc(N2CCN(Cc3ccnc4c3ccn4CC(=O)N3CCNC(=O)C3)C2=O)ccc1OC` [CU0058] has an IC50 of 2490 nM.
For `CCCCCOc1cc(N2CCCN(Cc3cccc4nc(C)oc34)C2=O)ccc1OC` [CU0066], the IC50 was 243 nM.
For `CCCCCOc1cc(N2CCCN(Cc3cccc4nc(CC)oc34)C2=O)ccc1OC` [CU0067], the IC50 was 946 nM.
Compound `CCCCCOc1cc(N2CCCN(Cc3ccc(CC(=O)O)cc3OC)C2=O)ccc1OC` [CU0102] has an IC50 of 53.7 nM.
In the case of `CCCCCOc1cc(N2CCCN(Cc3ccc(CC(=O)N(C)C)cc3OC)C2=O)ccc1C1CC1` [CU0113], the IC50 is reported as 54.8 nM.
`CCCCCOc1cc(N2CCCN(Cc3ccc(CC(=O)N4CCCOCC4)cc3OC)C2=O)ccc1C1CC1` [CU0114] showed an IC50 of 99.1 nM.
For `CCCCCOc1cc(N2CCCN(Cc3cccc(-c4cnn(C5COC5)c4)c3F)C2=O)ccc1OC` [CU0119], the IC50 was 52 nM.
With `CCCCCOc1cc(N2CCCN(Cc3cccc(-c4cnn(C(C)OCC)c4)c3F)C2=O)ccc1OC` (centres unmarked) [CU0125] the IC50 was 73.6 nM.
With `CCCCCOc1cc(N2CCCN(Cc3cccc(-c4cnn(CC(C)C)c4)c3F)C2=O)ccc1OC` [CU0126] the IC50 was 153 nM.
`CCCCCOc1cc(N2CCCN(Cc3cccc(C4=CCNCC4)c3F)C2=O)ccc1OC` [CU0128] showed an IC50 of 60.6 nM.
Work on `CCCCCOc1cc(N2CCCN(Cc3cccc(N4CCN(C5COC5)CC4)c3F)C2=O)ccc1OC` [CU0130] yielded an IC50 of 147 nM.
`CCCCCOc1cc(N2CCCN(Cc3cccc(N4CCC(C(C)(C)O)C4)c3F)C2=O)ccc1OC` (centres unmarked) [CU0131] showed an IC50 of 151 nM.
In the case of `CCCCCOc1cc(N2CCCN(Cc3cccc(N4CCOCC4)c3F)C2=O)ccc1OC` [CU0132], the IC50 is reported as 301 nM.
For `CCCCCOc1cc(N2CCCN(Cc3cccc(N4CCN(C)CC4)c3F)C2=O)ccc1OC` [CU0133], the IC50 was 82.2 nM.
`CCCCCOc1cc(N2CCCN(Cc3ccc(CC(=O)NC4CCN(C(C)=O)C4)cc3Cl)C2=O)ccc1OC` (centres unmarked) [CU0134] showed an IC50 of 16.1 nM.
With `CCCCCOc1cc(N2CCCN(Cc3ccc(CC(=O)NC4CCN(C(C)C)CC4)cc3Cl)C2=O)ccc1OC` [CU0135] the IC50 was 14.5 nM.
For `CCCCCOc1cc(N2CCCN(Cc3ccc(CNC(=O)OC)cc3OC)C2=O)ccc1OC` [CU0137], the IC50 was 10 nM.
Compound `CCCCCOc1cc(N2CCCN(Cc3ccc(CCOC(=O)N4CCCC4)cc3OC)C2=O)ccc1OC` [CU0138] has an IC50 of 55.4 nM.
`CCCCCOc1cc(N2CCCN(Cc3ccc(CCn4ccnc4)cc3OC)C2=O)ccc1OC` [CU0139] was tested, and the IC50 was 91.7 nM.
`COc1cc(CC(=O)NC2CCN(C(C)=O)C2)ccc1CN1CCCN(c2ccc(OC)c(OCCCC(C)(F)F)c2)C1=O` (centres unmarked) [CU0142] gave an IC50 of 18.3 nM.
`COc1ccccc1CN1CCCN(c2ccc(OC)c(OCCCC(C)(F)F)c2)C1=O` [CU0143] was tested, and the IC50 was 23.3 nM.
Compound `CCCCCOc1cc(N2CCCN(Cc3ccc(F)c(C4=CCNCC4)c3)C2=O)ccc1OC` [CU0144] has an IC50 of 109 nM.
Work on `COc1cc(CC(=O)N2CCCOCC2)ccc1CN1CCCN(c2ccc(OC)c(OCCCC(C)(F)F)c2)C1=O` [CU0146] yielded an IC50 of 12.5 nM.
`CCCCCOc1cc(N2CCCN(Cc3ccc(CCn4ccnn4)cc3OC)C2=O)ccc1OC` [CU0147] gave an IC50 of 46.4 nM.
`CCCCCOc1cc(N2CCCN(Cc3ccc(CCn4cnnn4)cc3OC)C2=O)ccc1OC` [CU0148] showed an IC50 of 36 nM.
With `CCCCCOc1cc(N2CCCN(Cc3ccc(CN(C)C(=O)OC)cc3OC)C2=O)ccc1OC` [CU0149] the IC50 was 24.1 nM.
With `CCCCCOc1cc(N2CCCN(Cc3ccc(F)c(-c4cnn(C5CCN(C)CC5)c4)c3)C2=O)ccc1OC` [CU0150] the IC50 was 87.6 nM.
`CCCCCOc1cc(N2CCCN(Cc3cc(C4=CCNCC4)ccc3OC)C2=O)ccc1OC` [CU0151] showed an IC50 of 707 nM.
With `CCCCCOc1cc(N2CCCN(Cc3cc(-c4cnn(C5CCN(C)CC5)c4)ccc3OC)C2=O)ccc1OC` [CU0152] the IC50 was 146 nM.
`CCCCCOc1cc(N2CCCN(Cc3ccc(Br)cc3OC)C2=O)ccc1OC` [CU0153] gave an IC50 of 233 nM.
With `CCCCCOc1cc(N2CCCN(Cc3cccc(C4=CCNCC4)c3OC)C2=O)ccc1OC` [CU0155] the IC50 was 43.7 nM.
Work on `CCCCCOc1cc(N2CCCN(Cc3cc(OC)cc(C4=CCNCC4)c3)C2=O)ccc1OC` [CU0156] yielded an IC50 of 241 nM.
Compound `CCCCCOc1cc(N2CCCN(Cc3cccc(-c4cnn(C5CCN(C)CC5)c4)c3OC)C2=O)ccc1OC` [CU0157] has an IC50 of 146 nM.
In the case of `CCCCCOc1cc(N2CCCN(Cc3cc(OC)cc(-c4cnn(C5CCN(C)CC5)c4)c3)C2=O)ccc1OC` [CU0158], the IC50 is reported as 27.8 nM.
Compound `CCCCCOc1cc(N2CCCN(Cc3ccc(CCO)cc3OC)C2=O)ccc1OC` [CU0159] has an IC50 of 98.8 nM.
Work on `COc1cc(Cl)ccc1CN1CCCN(c2ccc(OC)c(OCc3ccccc3)c2)C1=O` [CU0162] yielded an IC50 of 2870 nM.
Compound `COc1cc(F)ccc1CN1CCCN(c2ccc(OC)c(OCc3ccccc3)c2)C1=O` [CU0163] has an IC50 of 1000 nM.
`COc1ccc(F)cc1CN1CCCN(c2ccc(OC)c(OCc3ccccc3)c2)C1=O` [CU0164] was tested, and the IC50 was 592 nM.
For `CCCCCOc1cc(N2CCCN(Cc3ccc(F)cc3OC)C2=O)ccc1OC` [CU0165], the IC50 was 36 nM.
`CCCCCOc1cc(N2CCCN(Cc3ccc(Cl)cc3OC)C2=O)ccc1OC` [CU0166] was tested, and the IC50 was 92.1 nM.
`C=CCCCOc1cc(N2CCCN(Cc3cc(F)ccc3OC)C2=O)ccc1OC` [CU0167] was tested, and the IC50 was 39.9 nM.
`COc1ccc(F)cc1CN1CCCN(c2ccc(OC)c(OCC3CCCC3)c2)C1=O` [CU0168] showed an IC50 of 232 nM.
Work on `CCC#CCOc1cc(N2CCCN(Cc3cc(F)ccc3OC)C2=O)ccc1OC` [CU0169] yielded an IC50 of 82.4 nM.
Compound `CCC(F)(F)CCOc1cc(N2CCCN(Cc3ccc(CC(=O)N(C)C)cc3OC)C2=O)ccc1OC` [CU0171] has an IC50 of 45.1 nM.
For `CCCCCOc1cc(N2CCCN(Cc3ccc(CN4CCOCC4)cc3OC)C2=O)ccc1OC` [CU0172], the IC50 was 37.3 nM.
`CCC(F)(F)CCOc1cc(N2CCCN(Cc3ccc(CC(=O)N4CCCOCC4)cc3OC)C2=O)ccc1OC` [CU0174] gave an IC50 of 36.7 nM.
`CCC(F)(F)CCOc1cc(N2CCCN(Cc3ccccc3OC)C2=O)ccc1OC` [CU0176] gave an IC50 of 111 nM.
`C#CCCCOc1cc(N2CCCN(Cc3cc(F)ccc3OC)C2=O)ccc1OC` [CU0179] was tested, and the IC50 was 156 nM.
Compound `COc1ccc(F)cc1CN1CCCN(c2ccc(OC)c(OCc3ccc(C)cc3)c2)C1=O` [CU0180] has an IC50 of 411 nM.
Work on `COc1ccc(F)cc1CN1CCCN(c2ccc(OC)c(OCc3cccc(C)c3)c2)C1=O` [CU0181] yielded an IC50 of 119 nM.
`COc1ccc(F)cc1CN1CCCN(c2ccc(OC)c(OCc3ccccc3C)c2)C1=O` [CU0182] gave an IC50 of 936 nM.
`COc1ccc(F)cc1CN1CCCN(c2ccc(OC)c(OCCCc3ccccc3)c2)C1=O` [CU0183] gave an IC50 of 238 nM.
`COc1ccc(F)cc1CN1CCCN(c2ccc(OC)c(OCC[C@@H]3C[C@@H]4CC[C@H]3C4)c2)C1=O` [CU0184] showed an IC50 of 32.4 nM.
`COc1ccc(F)cc1CN1CCCN(c2ccc(OC)c(OCCC3CCCC3)c2)C1=O` [CU0185] gave an IC50 of 183 nM.
Work on `CCCCCOc1cc(N2CCCN(Cc3ccc(CCOCCN4CCCC4)cc3OC)C2=O)ccc1OC` [CU0189] yielded an IC50 of 413 nM.
With `CCCCCOc1cc(N2CCCN(Cc3ccc(CNC(=O)C4CN(C)C4)cc3OC)C2=O)ccc1OC` [CU0191] the IC50 was 87.9 nM.
`CCCCCOc1cc(N2CCCN(Cc3ccc(CNC(=O)OCC)cc3OC)C2=O)ccc1OC` [CU0192] showed an IC50 of 19.1 nM.
For `COc1ccc(F)cc1CN1CCCN(c2ccc(OC)c(OCCc3ccccc3)c2)C1=O` [CU0193], the IC50 was 45 nM.
Compound `CC/C=C\COc1cc(N2CCCN(Cc3cc(F)ccc3OC)C2=O)ccc1OC` [CU0194] has an IC50 of 94.6 nM.
`COc1ccc(F)cc1CN1CCCN(c2ccc(OC)c(OCCCC(F)(F)C(F)(F)F)c2)C1=O` [CU0195] was tested, and the IC50 was 49 nM.
`CCC(F)(F)CCOc1cc(N2CCCN(Cc3ccc(CC(=O)N4CCO[C@H](COC)C4)cc3OC)C2=O)ccc1OC` [CU0197] showed an IC50 of 31.6 nM.
Work on `COc1ccc(F)cc1CN1CCCN(c2ccc(OC)c(OCC3CC4(CCC4)C3)c2)C1=O` [CU0198] yielded an IC50 of 70.1 nM.
Work on `COc1cc(CC(=O)N(C)C)ccc1CN1CCCN(c2ccc(OC)c(OCc3ccccc3)c2)C1=O` [CU0199] yielded an IC50 of 370 nM.
For `CCCCCOc1cc(N2CCCN(Cc3ccc(C(O)c4nccn4C)cc3OC)C2=O)ccc1OC` (centres unmarked) [CU0200], the IC50 was 8.9 nM.
With `CCCCCOc1cc(N2CCCN(Cc3ccc(CNC(=O)OC4CC4)cc3OC)C2=O)ccc1OC` [CU0202] the IC50 was 10.8 nM.
With `CCCCCOc1cc(N2CCCN(Cc3ccc(CCOC(C)C)cc3OC)C2=O)ccc1OC` [CU0203] the IC50 was 30 nM.
`CCCCCOc1cc(N2CCCN(Cc3ccc(CCOC(=O)N(C)C)cc3OC)C2=O)ccc1OC` [CU0204] gave an IC50 of 21.6 nM.
Compound `COc1ccc(F)cc1CN1CCCN(c2ccc(OC)c(OCCC[C@H]3C[C@@H]3C)c2)C1=O` [CU0205] has an IC50 of 5.1 nM.
`COc1ccc(F)cc1CN1CCCN(c2ccc(OC)c(OCCC[C@H]3C[C@H]3C)c2)C1=O` [CU0206] was tested, and the IC50 was 11.9 nM.

Reference: patent publication US20230115176A1 (Ra Pharmaceuticals, Inc., priority 2019, published 2023)
Also: 1.5% C5-depleted human serum.
